Source: patent publication EP0521310A2, “Solid dispersion tablets containing 1,4-dihydropyridine derivatives and process for the preparation thereof” (FUJIREBIO Inc., priority 1991, dated 1993)

Experiment: thermal analysis (DSC) of solid dispersions, conversion to amorphous form
Assay type: physicochemical
Experimental: HPC and FRC8653, in the propotion of 1, 2, 3, 4 or 5 parts by weight of HPC based on one part by weight of FRC8653, were added to the mixed solvent of methanol/dichloromethane and dissolved, followed by removal of the solvent and drying. The samples obtained were subjected to thermal analysis (DSC).
Both HP55 (Shin-Etsu Chemical Co.) and FRC8653, in the proportion of 1, 2, 3, 4 or 5 parts by weight of HP55 based on one part by weight of FRC8653, were added to the mixed solvent of methanol/dichloromethane and dissolved, followed by removal of the solvent and drying in order to subject to thermal analysis (DSC). The amount of HP55 necessary to convert the FRC8653 into its amorphous form was 2 parts by weight or more per one part by weight of FRC8653.

COCCOC(=O)C1=C(C)NC(C)=C(C(=O)OC/C=C/c2ccccc2)C1c1cccc([N+](=O)[O-])c1 (racemic) [FRC8653, 2-methoxyethyl (E)-3-phenyl-2-propen-1-yl (+/-)-1,4-dihydro-2,6-dimethyl-4-(3-nitrophenyl)-3,5-pyridinedicarboxylate]
amount of HPC required to convert FRC8653 into its amorphous form (Fig. 3): ≥ 4 parts by weight per one part b | amount of HP55 necessary to convert the FRC8653 into its amorphous form (Fig. 6): ≥ 2 parts by weight per one part b
